Data on 16 molecules can be found in ChEMBL document CHEMBL1759844, “Design, synthesis and antimycobacterial activity of cinnamide derivatives: a molecular hybridization approach” (Bioorg Med Chem Lett, 2011).

SMILES strings stand for the structures.

In data set [1] the test system is Mycobacterium tuberculosis. Put plainly: Antimicrobial activity against Mycobacterium tuberculosis H37Rv after 48 hrs by resazurin microplate broth microdilution method. In kind it is functional. In general terms: Alamar Blue is a resazurin reagent that responds to reducing activity.
Data set [2] is described as follows: Cytotoxicity against african green monkey Vero cells after 72 hrs by MTT assay. The format is cell-based. The note with it: chlorocebus sabaeus. (Tetrazolium assays rely on reduction of a dye to a coloured formazan, in cell work by metabolically active cells.)
A short description of data set [3]: Selectivity index, ratio of CC50 for african green monkey Vero cells to MIC for Mycobacterium tuberculosis H37Rv. The format is functional.
Data set [4] has as its system Mycobacterium tuberculosis. Put plainly: Antimicrobial activity against Mycobacterium tuberculosis H37Rv after 48 hrs by resazurin microplate broth microdilution method in presence of rifampicin. The format is functional.

What is called MIC is the lowest concentration found to suppress growth. A word on the CC50: it is the concentration at which the toxic effect on the cells reaches its halfway point. Consider `O=C(/C=C/c1ccccc1)N1CCCN(C(=O)/C=C/c2ccccc2)CC1`, for which, in data set [1], the MIC was 17.3 µM. In addition, the CC50 at 72 h in data set [2] turned out to be 708 µM. Besides, the “Selectivity Index” value in data set [3] is 41.

Consider `O=C(/C=C/c1ccccc1)NCCNC(=O)/C=C/c1ccccc1`, for which the MIC in data set [1] is 5.1 µM. In data set [2], the midpoint of cytotoxicity, the CC50 at 72 h, lay at 618 µM. Also, the “Selectivity Index” value in data set [3] worked out at 121. Further, the “fractional inhibitory concentration index (FICI)” value in data set [4] was found to be 0.31.

On to `O=C(/C=C/c1ccccc1)N1CCN(C(=O)/C=C/c2ccccc2)CC1`, for which the lowest concentration to inhibit growth in data set [1] (MIC) was 9 µM. Moreover, half-maximal cytotoxicity in data set [2] (CC50 at 72 h) was put at 855 µM. The “Selectivity Index” value in data set [3] was 95.

`O=C(/C=C/c1ccccc1)NCCN1CCN(C(=O)/C=C/c2ccccc2)CC1` displayed an MIC in data set [1] of 16.7 µM. This molecule also displayed a CC50 at 72 h in data set [2] of 480 µM. In addition, in data set [3], the “Selectivity Index” value is reported as 29.

On to `Cc1ccc(/C=C/C(=O)NCCNC(=O)/C=C/c2ccc(C)cc2)cc1`, for which the MIC in data set [1] came to 144 µM. Besides, in data set [2], the CC50 at 72 h stood at 565 µM. In data set [3], the “Selectivity Index” value is given as 4.

The molecule `COc1ccc(/C=C/C(=O)NCCNC(=O)/C=C/c2ccc(OC)cc2)cc1` displayed an MIC in data set [1] of 132 µM. In data set [2], it took 680 µM to reach half-maximal cytotoxicity (CC50 at 72 h). In addition, the “Selectivity Index” value in data set [3] is given as 5.

The molecule `O=C(/C=C/c1ccc(Cl)cc1)NCCNC(=O)/C=C/c1ccc(Cl)cc1` yielded an MIC in data set [1] of 129 µM. This molecule returned a half-maximal cytotoxic concentration (CC50) at 72 h in data set [2] of 788 µM. Further, in data set [3], the “Selectivity Index” value worked out at 6.

`O=C(/C=C/c1ccccc1Cl)NCCNC(=O)/C=C/c1ccccc1Cl` gave an MIC in data set [1] of 64.4 µM. The CC50 at 72 h in data set [2] was determined as 725 µM. For the same molecule, in data set [3], the “Selectivity Index” value is recorded as 11.

In data set [1], `O=C(/C=C/c1cccc([N+](=O)[O-])c1)NCCNC(=O)/C=C/c1cccc([N+](=O)[O-])c1` had an MIC of 68.5 µM. The same molecule displayed a CC50 at 72 h in data set [2] of 615 µM. In data set [3], the “Selectivity Index” value came to 9.

Molecule `COc1ccccc1/C=C/C(=O)NCCNC(=O)/C=C/c1ccccc1OC` displayed an MIC in data set [1] of 65.8 µM. The molecule further registered a CC50 at 72 h in data set [2] of 695 µM. For the same molecule, in data set [3], the “Selectivity Index” value was determined as 11.

Consider `O=C(/C=C/c1c(Cl)cccc1Cl)NCCNC(=O)/C=C/c1c(Cl)cccc1Cl`, for which the MIC in data set [1] came to 54.8 µM. This molecule registered a CC50 at 72 h in data set [2] of 653 µM. Besides, in data set [3], the “Selectivity Index” value is 12.

Molecule `O=C(/C=C/c1ccco1)NCCNC(=O)/C=C/c1ccco1` yielded an MIC in data set [1] of 10.8 µM. In data set [2], this molecule gave a CC50 at 72 h of 683 µM. Further, in data set [3], the “Selectivity Index” value stood at 63.

Turning to `O=C(/C=C/c1cccs1)NCCNC(=O)/C=C/c1cccs1`, the minimal inhibitory concentration (MIC) in data set [1] was 9.41 µM. In data set [2], this molecule registered a cytotoxic concentration (CC50) at 72 h of 692 µM. In addition, the “Selectivity Index” value in data set [3] came out at 74.

In turn, `O=C(/C=C/c1ccc(Cl)c(Cl)c1)NCCNC(=O)/C=C/c1ccc(Cl)c(Cl)c1` displayed an MIC in data set [1] of 54.8 µM. Moreover, the CC50 at 72 h in data set [2] worked out at 653 µM. The “Selectivity Index” value in data set [3] is 12.

Regarding `CC[C@@H](CO)NCCN[C@@H](CC)CO` [ETHAMBUTOL], it took 15.3 µM to inhibit growth in data set [1] (MIC). In addition, in data set [2], it took 1470 µM to reach half-maximal cytotoxicity (CC50 at 72 h). Besides, in data set [3], the “Selectivity Index” value was 96.

As for `CO[C@H]1/C=C/O[C@@]2(C)Oc3c(C)c(O)c4c(O)c(c(/C=N/N5CCN(C)CC5)c(O)c4c3C2=O)NC(=O)/C(C)=C\C=C\[C@H](C)[C@H](O)[C@@H](C)[C@@H](O)[C@@H](C)[C@H](OC(C)=O)[C@@H]1C` [RIFAMPIN], the MIC in data set [1] turned out to be 0.125 µg/mL.
